Results: patent US20220048961A1, “TRANSFERRIN RECEPTOR TARGETING PEPTIDES” (FRED HUTCHINSON CANCER RESEARCH CENTER, priority 2018, published 2022)

Test system: neurotensin receptor (CRE-driven luciferase)
Assay: CRE-luciferase reporter mice, whole-animal brain luminescence (IVIS)
Format: in vivo
Details: 1.68 mg rolipram and 0.84 mg forskolin given together IP, luciferin four hours after, FIG. 31

In the case of `COc1ccc(C2CNC(=O)C2)cc1OC1CCCC1` (stereo not shown) [rolipram], the “CRE-driven luciferase induction (brain luminescence), positive control” value is reported as “high levels of luminescence from the animal's brain”.
